Assay results from US6589952B2, “Imidazo[1,2-a]pyrazines for the treatment of neurological disorders” (Bristol-Myers Squibb Pharma Company, priority 2000, dated 2003).

- melting point: 159 to 160 °C
SMILES: CCCC(O)c1c(CC)nc2c(-c3ccc(Cl)cc3Cl)nccn12 (stereo not shown) [Example 7, 8-(2,4-dichlorophenyl)-2-ethyl-3-(1-hydroxybutyl)imidazo[1,2-a]pyrazine]
